Test results as given in patent EP2805705B1, “Packaging with one or more administration units comprising a sodium salt of (R)-3-[6-amino-pyridin-3-yl]-2-(1-cyclohexyl-1 H-imidazol-4-yl)-propionic acid” (IP Gesellschaft für Management mbH, priority 2013, dated 2014).

What was measured:
Assay type in all cases: physicochemical
[1] = Chiral stability on storage for 14 days (chiral HPLC)
Procedure: Example 4: Chiral stability: Representative samples of the crystalline salt of (R)-3-(6-amino-pyridin-3-yl)-2-(1-cyclohexyl-1 H-imidazol-4-yl)-propionic acid ethyl ester with naphthalene-1,5disulfonic acid were prepared as described in example 1 amd stored for 14 days under described conditions (A), (B), (C) and (D): Results:
The enantiomeric purity of the sample measured at the beginning of measurement was 99.0%. Under the storage conditions 50°C (A) and 50°C and 80% relative humidity (B) a small increase of 0.2% of the (S)-enantiomers was observed. Under storage conditions 80°C (C), no change can be observed. Under the storage condition 80°C and 80% relative humidity (D) an increase of 2.7% of (S)-enantiomers was are observed. The measurements were made as described in Example 1 by chromatography on a chiral phase, Chiral HPLC (Chiralcel OD-H/84 (250x4.6 mm), heptane: isopropanol: acetonitrile 15:1: 0.5 +0.1% diethylamine (DEA), 30°C, 1 ml / min): Rt = 27.01 min.

[2] = Physical stability on storage for 14 days (XRPD, thermogravimetry); conditions: stored 14 days under conditions (A), (B), (C) and (D)
Procedure: Example 3: Physical stability: Representative samples of the crystalline salt of (R)-3-(6-amino-pyridin-3-yl)-2-(1-cyclohexyl-1 H-imidazol-4-yl)-propionic acid ethyl ester with naphthalene-1,5-disulfonic acid as in Example 1 are produced and are stored for 14 days under the conditions (A), (B), (C) and (D): (A) 50°C; (B) 50°C and 80% relative humidity; (C) 80°C; (D) 80°C and 80% relative humidity.

[3] = Maturation experiments (slurry conversion), relative stability; conditions: among polymorphs 1, 2 and hydrate 1, suspensions kept five days at 20 °C, then dried at 40°C and <100 mbar
Procedure: Maturation experiments: By maturation experiments (slurry conversion) at 20 °C the relative stability of polymorphs 1 ({drug5b}) and 2 ({drug5c}) and hydrate 1 ({drug5e}) was investigated. A polymorph mixture of 81 mg (Mixture of Polymorph 1 ({drug5b}) and Polymorph 2 ({drug5c})), 83 mg of Polymorph 1 ({drug5b}) and 60 mg of hydrate 1 ({drug5e}) was prepared. The mixture was subjected to XRPD analysis to confirm the presence of all three polymorphs and then distributed into five capillaries. These samples were kept in suspension at 20°C for five days. After X-ray powder diffraction measurement of the suspensions these were dried over night at 40°C and <100mbar and again subjected to X-ray diffraction. Maturation experiments (a) to (e) were performed under the specified conditions, starting with the polymorph mixture described above. (a) The polymorph mixture was suspended in water. After stirring the suspension for five days at 20 °C, the suspension was analyzed via XRPD and a mixture of polymorph 1 ({drug5b}) and hydrate 1 ({drug5e}) was proven. […] (b) The polymorph mixture was suspended in water/methanol 1:1 (vol.: vol.). […] (c) The polymorph mixture was suspended in 2-propanol. […] (d) The polymorph mixture was suspended in acetone. […] (e) The polymorph mixture was suspended in ethylacetate. […]

[4] = Solubility in water (statement, no method given); conditions: result in words
[5] = Dynamic vapor sorption (DVS), DVS-1 instrument, two cycles at 25 °C; conditions: for weight increase in the sorption step: 25 °C
[6] = Determination of solubility in a mixture of acetone and water (4:1, by volume); conditions: acetone and water (4:1, by volume)
Procedure: Determination of solubility: For the determination of the solubility in a mixture of acetone and water (4:1, by volume), samples of 0.5 mg to 50 mg of the test substances were suspended in a defined amount of the solvent (800 mg to 1200 mg) in screw cap vials with a magnetic stirring bar, which were placed in a temperature-controlled multiple stirring device equipped for transmission measurement (Avantium Crystal 16). With stirring at 700 rpm, the vials were cooled from room temperature to 0 °C and then heated to 60 °C with a heating rate of 3 °C/h, kept at 60 °C for 2 h and cooled again to 0 °C with a cooling rate of 3 °C/h. By means of transmission measurement it was determined whether the sample was dissolved (100 % transmission), or crystals were present. For polymorph 1 ({drug5b}), polymorph 2 ({drug5c}), hydrate 1 ({drug5e}) and hydrate 2 ({drug5f}) of compound (V) the following solubilities in a mixture of acetone and water (4:1, by volume) were determined.

With CCOC(=O)[C@H](Cc1ccc(N)nc1)c1cn(C2CCCCC2)cn1.O=S(=O)(O)c1cccc2c(S(=O)(=O)O)cccc12 [naphthalene-1,5-disulfonic acid salt of (R)-3-(6-amino-pyridin-3-yl)-2-(1-cyclohexyl-1 H-imidazol-4-yl)-propionic acid-ethylester] the enantiomeric purity ([1]; at the beginning of measurement) was 99.0%, the “increase of (S)-enantiomers” value ([1]; storage condition 80°C and 80% relative humidity (D), 14 days) was 2.7% and the enantiomeric purity ([1]; storage condition (A) 50°C, 14 days) was 98.8%. For the same compound, the enantiomeric purity ([1]; storage condition (B) 50°C and 80% relative humidity, 14 days) was 98.8%, the enantiomeric purity ([1]; storage condition (C) 80°C, 14 days) was 99.0% and the enantiomeric purity ([1]; storage condition (D) 80°C and 80% relative humidity, 14 days) was 96.3%. For the same compound, the “increase of the (S)-enantiomers” value ([1]; storage conditions 50°C (A) and 50°C and 80% relative humidity (B), 14 days) was 0.2%, the “change of enantiomeric purity” value ([1]; storage conditions 80°C (C), 14 days) was “no change” and the “XRPD measurements at the beginning and after 14 days” value [2] was “close to each other”.
For CNc1nccc(-c2cc3cc(C(=O)N[C@@H](CN(c4ccccc4)c4ncccn4)C(N)=O)ccc3[nH]2)n1 [Polymorph 1, 2-(2-methylamino-pyrimidin-4-yl)-1 H-indole-5-carboxylic acid [(S)-1-carbamoyl-2-(phenyl-pyrimidin-2-yl-amino)-ethyl]-amide], the relative thermodynamic stability [3] was “thermodynamically most stable polymorph”, the relative thermodynamic stability ([3]; listed as polymorph 1) was “thermodynamically most stable” and the solubility in water [4] was “low solubility in water”. The “weight increase in the sorption step” value ([5]; Relative humidity 40 %, first cycle) was 0.5 % / 0.5%, the “weight increase in the sorption step” value ([5]; Relative humidity 40 %, second cycle) was 0.5 % / 0.5% and the “weight increase in the sorption step” value ([5]; Relative humidity 60 %, first cycle) was 0.6 % / 0.6%. For the same compound, the “weight increase in the sorption step” value ([5]; Relative humidity 60 %, second cycle) was 0.6 % / 0.6%, the “weight increase in the sorption step” value ([5]; Relative humidity 80 %, first cycle) was 0.9 % / 0.9% and the “weight increase in the sorption step” value ([5]; Relative humidity 80 %, second cycle) was 0.9 % / 0.9%. For the same compound, the “weight increase in the sorption step” value ([5]; Relative humidity 95 %, first cycle) was 1.3%, the “weight increase in the sorption step” value ([5]; Relative humidity 95 %, second cycle) was 1.4% and the “water uptake (hygroscopicity)” value ([5]; at a high relative humidity of 80 %) was “about 0.9%”. The “Solubility [g in 100 g of solvent]” value ([6]; Temperature 36.9 °C) was 0.43 g in 100 g of solvent, the “Solubility [g in 100 g of solvent]” value ([6]; Temperature 44.7 °C) was 0.50 g in 100 g of solvent and the “Solubility [g in 100 g of solvent]” value ([6]; Temperature 60.0 °C) was 0.85 g in 100 g of solvent.
